# Source: PubChem BioAssay AID651759 (The Scripps Research Institute Molecular Screening Center, 2012)
# “And” between values parts separate entries of the source, which are not always exact repeats. Identical values can stand only once. The source made the active and inactive calls. How the calls were made is not given here.
# Target: Perilipin-5 (Homo sapiens) + 1-acylglycerol-3-phosphate O-acyltransferase ABHD5 (Homo sapiens) (UniProt Q00G26+Q8WTS1)
# Assay: ABHD5-PLIN5 interaction inhibitors, late-stage follow-up, cell lysate, luminescence, proteins expressed in HEK293T (AID 651759)
# Perilipin-5 (Homo sapiens) + 1-acylglycerol-3-phosphate O-acyltransferase ABHD5 (Homo sapiens), sequence (Q00G26 whole entry, looked up): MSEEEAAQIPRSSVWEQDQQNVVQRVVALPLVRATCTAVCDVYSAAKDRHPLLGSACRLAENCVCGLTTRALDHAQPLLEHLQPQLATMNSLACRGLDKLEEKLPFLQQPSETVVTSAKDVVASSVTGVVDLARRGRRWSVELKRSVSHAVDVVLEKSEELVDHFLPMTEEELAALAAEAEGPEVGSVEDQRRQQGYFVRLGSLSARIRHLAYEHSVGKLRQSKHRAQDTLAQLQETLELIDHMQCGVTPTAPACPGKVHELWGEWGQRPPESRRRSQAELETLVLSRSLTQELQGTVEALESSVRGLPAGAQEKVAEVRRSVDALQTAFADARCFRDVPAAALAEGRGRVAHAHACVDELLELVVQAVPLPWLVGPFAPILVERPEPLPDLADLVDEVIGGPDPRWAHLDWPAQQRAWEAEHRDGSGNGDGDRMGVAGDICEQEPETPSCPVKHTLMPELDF
# Perilipin-5 (Homo sapiens) + 1-acylglycerol-3-phosphate O-acyltransferase ABHD5 (Homo sapiens), sequence (Q8WTS1 whole entry, looked up): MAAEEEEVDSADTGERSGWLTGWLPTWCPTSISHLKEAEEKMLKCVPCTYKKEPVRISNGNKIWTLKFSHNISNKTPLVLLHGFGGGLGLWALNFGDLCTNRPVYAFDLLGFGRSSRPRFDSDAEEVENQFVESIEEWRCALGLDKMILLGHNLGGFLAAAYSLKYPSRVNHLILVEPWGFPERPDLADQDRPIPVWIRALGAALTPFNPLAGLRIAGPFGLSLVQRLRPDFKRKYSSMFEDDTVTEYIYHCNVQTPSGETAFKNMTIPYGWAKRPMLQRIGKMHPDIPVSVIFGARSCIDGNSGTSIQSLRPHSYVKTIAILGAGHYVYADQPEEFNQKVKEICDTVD
row,SMILES,IC50
1,CCOC(=O)c1c(NC(C)=O)sc2c1CCC(C=O)=C2Sc1ccccc1,2.25 µM
2,CC1Sc2ccc(S(=O)(=O)N3CCC(C(=O)NCc4ccc(Cl)cc4)CC3)cc2NC1=O (stereo unspecified),8.86 µM
3,CN(C)CCN(Cc1ccco1)c1ccccn1,> 39.8 µM (inactive)
4,O=c1[nH]c(C2CCN(S(=O)(=O)c3ccc(S(=O)(=O)NC4CC4)cc3)CC2)nc2c1nnn2Cc1ccc(F)cc1,1.33 µM
5,CCCCNC(=O)Nc1ccc2c(c1)N(C)C(=O)c1ccccc1S2,3.12 µM
6,CCN(CC)CCNC(=O)c1ccc(NC(=O)c2cn(-c3ccccc3)nc2-c2cccs2)cc1,inactive
7,Cc1cc(C)c(NC(=O)CN2CCN3CCCC3C2)c(C)c1 (stereo unspecified),7.06 µM
8,CCN(CC)CCOc1ccc(/C(=C(/Cl)c2ccccc2)c2ccccc2)cc1,1.32 µM
9,Cc1cc(C)c(NC(=O)C[N+](C)(C)CC(O)COc2cccc3ccccc23)c(C)c1 (stereo unspecified),9.14 µM
10,CCN(CC)CCC(C)OC(c1ccccc1)c1ccccc1 (stereo unspecified),1.38 µM
11,CN(C)CCOC1(Cc2ccc(F)cc2)CCC(C(C)(C)C)CC1 (stereo unspecified),> 39.8 µM (inactive)
12,CC(CCc1ccco1)NC(=O)CCc1nnc2ccc(NCc3ccccc3Cl)nn12 (stereo unspecified),2.89 µM
13,CCN(CC)CCOCCOC(=O)C1(c2ccccc2)CCCC1,1.26 µM
14,CC(=O)Cc1cc(O)c2ccccc2c1OC(=O)c1ccc(Br)cc1,4.75 µM
15,COc1ccc(C)c2sc(N(CCN(C)C)C(=O)/C=C/c3cccs3)nc12,inactive
16,Cc1ccc2c(CC(=O)N3CCN(S(=O)(=O)c4ccc5c(c4)OCCO5)CC3)coc2c1,2.97 µM and 5.73 µM
17,CN(C)CCCN(C(=O)CCc1ccccc1)c1nc2ccc(Cl)cc2s1,inactive
18,O=c1[nH]c(C2CCN(S(=O)(=O)c3ccc(F)cc3)CC2)nc2c1nnn2Cc1ccc2c(c1)OCCO2,inactive
19,COCCN(CCOC)c1nc(N)c2c(N)nc3c(c2c1C#N)CC(=O)N3Cc1ccc(Cl)cc1,> 39.8 µM (inactive)
20,Cc1nc2c(o1)CCc1ccccc1C2N1CCN(C)CC1 (stereo unspecified),2.25 µM
21,CN(C)CCCN(C(=O)CCc1ccccc1)c1nc2ccc(Br)cc2s1,inactive
22,COc1ccc(NC(=S)N(CCCN2CCCC2)Cc2cccn2Cc2ccc(Cl)cc2)cc1Cl,inactive
23,CN1CCC(=C2c3ccccc3CC(=O)c3sccc32)CC1,> 39.8 µM (inactive)

row,SMILES,IC50
1,CC(=O)Cc1cc(O)c2ccccc2c1OC(=O)c1ccccc1,3.56 µM
2,CCOc1cc(N)c(Cl)cc1C(=O)NCC1CN(Cc2ccc(F)cc2)CCO1 (stereo unspecified),1.29 µM
3,C=C[C@]1(C)C[C@@H](OC(=O)CSCCN(CC)CC)[C@]2(C)C(C)CC[C@]3(CCC(=O)[C@H]32)[C@@H](C)[C@@H]1O (stereo partly specified),4.45 µM
4,CCCCOC(=O)Nc1cc(C(=O)OC)ccc1C(=O)OC,3.7 µM
5,FC(F)(F)c1cccc(NC(=S)N(CCCN2CCCC2)Cc2cccn2Cc2ccc(Cl)cc2)c1,inactive
6,CCCNC(=O)Nc1ccc2c(c1)N(C)C(=O)c1ccccc1S2,5.58 µM
7,COc1cc2c(cc1OC)C(C)N(CCc1ccc(Cl)cc1)CC2 (stereo unspecified),9.34 µM
8,CC1CCN(S(=O)(=O)c2ccc(NC(=O)Cc3ccccc3)cc2)CC1,7.89 µM
9,COc1ccccc1-c1cc(C(=O)NC2CCN(C)CC2)c2ccc(Cl)c(C)c2n1,> 13.3 µM (inactive)
10,O=C(C[n+]1cccc(CNC(=O)c2ccc(OC(F)F)cc2)c1)Nc1cccc(C(F)(F)F)c1,> 39.8 µM (inactive)
11,CC1=CC(C)(C)Nc2ccc(OC(=O)C(C)N3C(=O)c4ccccc4C3=O)cc21 (stereo unspecified),4.25 µM
12,COc1cc(OC)cc(C(=O)NC(=S)N(Cc2ccccc2)C(C)C)c1,2.15 µM
13,Cc1cc(C)c2nc(NNC(=O)c3ccc(S(=O)(=O)N4CCCC(C)C4)cc3)sc2c1 (stereo unspecified),3.89 µM
14,CC(=O)Oc1ccc(C23c4ccccc4C2(OC(C)=O)c2cc(OC(C)=O)ccc23)cc1 (stereo unspecified),> 39.8 µM (inactive)
15,CC(C)c1ccc(N2C=Nc3ccc(C(C)C)cc3C2)cc1,1 µM
16,CCN(CC)CCN(CC(=O)Nc1c(C)cc(C)cc1C)C(=O)c1ccccc1,2.85 µM
17,CC(=O)Nc1ccc(S(=O)(=O)N2c3ccc(F)cc3CCC2C)cc1 (stereo unspecified),inactive
18,NC(=NCCCCCCN=C(N)/N=C(\N)Nc1ccc(Cl)cc1)/N=C(\N)Nc1ccc(Cl)cc1,6.22 µM and 6.86 µM
19,CC1CCN(S(=O)(=O)c2ccc(NC(=O)Cc3cccs3)cc2)CC1,9 µM
20,O=C(/C(=C/O)N=Nc1ccc(Cl)cc1)c1ccncc1,6.19 µM
21,COc1cc(C)c2sc3ccccc3c(=O)c2c1NCCN(C)C,> 39.8 µM (inactive)
22,CCOC(=O)c1c(NC(=O)/C=C/C(=O)O)sc(C)c1-c1ccc(C(C)(C)C)cc1,4.5 µM
23,Cc1ccc2nc3cc([N+](=O)[O-])cc([N+](=O)[O-])c3cc2c1,1.44 µM
